From patent publication US12629347B2, “Compounds and dosage regimen for use in the prevention or treatment of chronic inflammatory and/or autoimmune diseases” (Immunic AG, priority 2017, dated 2026)
Like-named read-outs stand apart in the source and are kept apart here. Marks after values point to notes of the source that are not given here.

How the values were obtained:
[1] = Clinical observations with vidofludimus: blood uric acid, urine RBC, hematuria; assay type: in vivo, human
Protocol: A novel class of compounds with an inhibitory effect on DHODH, in particular human DHODH, was found and described in EP 2 093 214 A1. Vidofludimus (CAS 717824-30-1) is the free acid of a compound according to formula (I) and is tested in clinical trials in human subjects. […] Higher dose means e.g. doses higher than […] once daily application of vidofludimus in humans. However, doses of compounds of formula (I), e.g. higher than 200 μmol once daily application, sometimes lead to undesirable side effects such as an increased risk of increased red blood cell count (RBC) in the urine (hematuria).
At high vidofludimus doses (i.e. ≥70 mg/day or single doses of ≥210 mg) a decrease in blood uric acid levels and an increase in urine red blood cell count were observed, in very rare cases, presenting as symptomatic hematuria during the first 7 days of treatment. Laboratory findings were consistent with post-renal events and de novo precipitates in the urinary tract.
A side effect that may also be termed adverse effect is a harmful and undesired effect resulting from medication during its use in the prevention and/or treatment of a patient with the inventive compound (I).

[2] = Clinical study comparing treatment with and without pre-treatment phase: uric acid excreted in urine; assay type: in vivo, human; details: for Change in Median uric acid excreted in urine: Day 0 (first day of 50 mg dose), n 8
Description: A double-blind clinical study, Placebo controlled, Ascending Dose has been conducted. This study has been reported (Study Number P1-IMU-838-MAD).
Uric acid excretion in urine could be however modified with a pre-treatment period.

[3] = Phase I SAD study: uric acid in 24 h collected urine; assay type: in vivo, human; details: for Uric acid, Pre dose (−24 h to 0): 24 h urine; for Increase of mean uric acid levels: post dose vs pre dose
Protocol: (§1) During the IMU-838 (vidofludimus-calcium) phase I SAD study (Immunic study number P1-IMU-838-SAD), urine was collected from all volunteers and tested with respect to the amount of clinical relevant anions, including urate and oxalate. In addition, formation of anion crystals in the urine was measured. In this study, IMU-838 was tested as a single dose applied to male healthy volunteers. Five different dose regimens were tested which covered four different doses of IMU-838: 10 mg, 20 mg, 30 mg and 40 mg of IMU-838 in fastened patients, which means no food intake 10 hours prior to the treatment and two hours after dose application. In addition, one dose group received 10 mg of IMU-838 in fed state which means that the 10 mg dose was applied after a high-fat breakfast. Each group consisted of six healthy volunteers, except for the 40 mg dose group with only five volunteers.
The pre-dose value was derived from urine collected 24 hours before application of IMU-838 tablets. The post dose value was obtained by collecting 24 hours urine starting 4 hours after intake of IMU-838.

[4] = Three week phase I trial with dose-in phase (25 mg then 50 mg): urate in 24 h urine; assay type: in vivo, human; details: all 20 subjects incl. placebo
Protocol: 8 individuals were treated with 25 mg for 7 days, followed by 14 day treatment with a dose of 50 mg once daily. Another 8 volunteers were treated with placebo (dose 1=0 mg) for 7 days followed by treatment of 50 mg IMU-838. 4 volunteers received placebo for the whole time.
Based on the observations on a) dose dependent effect of IMU-838 on urate levels in the urine and formation of small crystals (example 1) and b) the time course and dose dependence of urate level changes in single volunteers (example 2) a new therapeutic treatment scheme was invented. In this example a treatment scheme was applied to a three week clinical phase I trial consisting of two different doses “dose 1” of 25 mg daily dose and “dose 2” of 50 mg daily dose. 8 subjects received a lower dose 1 for 7 days followed by the higher (double) dose 2 for further 14 days, whereas another 8 subjects received placebo for 7 days then followed by treatment with the 50 mg high dose (dose 2). 4 subjects received placebo during the foll three week period. During this study urine was collected at four different timepoints (pre-dose, day 1, day 7, day 14) and analyzed for urate/uric acid levels.

[5] = Phase I SAD study (P1-IMU-838-SAD): plasma concentration after single dose; assay type: in vivo; details: human, oral, read-out: maximum plasma concentrations (cmax)
[6] = Phase I MAD trial (P1-IMU-838-MAD): uric acid in 24 h urine, 14 days once daily without predosing; assay type: in vivo, human
Protocol: Each group consists of 16 patients with 12 individuals receiving active drug IMU-838 (either 30 or 40 mg per day) and 4 patients receiving placebo.
In a randomized, placebo controlled double blind clinical Phase I MAD trial (Immunic study number P1-IMU-838-MAD), IMU-838 was applied to healthy volunteers for 14 days in order to test the effects of IMU-838 on safety and biomarkers for repeated once daily doses over 14 days. In the first part of this study, 12 individuals were treated with 30 mg of IMU-838, 12 individuals were treated with 40 mg of IMU-838 and 8 individuals received placebo (4 individuals in each group). For all 32 individuals, urate levels in the urine was quantified in three periods of 24 hour urine collection. The first collection was at pre-dose (day 0). The second urine collection started four hours after intake of the first dose (day 1, 4 hours to 28 hours). The third collection of urine was performed on the last day of the 14 day treatment cycle (day 14, 4 hours to 28 hours). The amounts of uric acid at those timepoints is depicted in FIG. 2a.

[7] = Phase I SAD study: RBC in urine / hematuria; assay type: in vivo, human
Protocol: as §1
Treatment of humans with IMU-838 leads to dose dependent increase of urate excretion through the urine and thus to formation of urate (micro)crystals.

[8] = high doses, ≥70 mg/day or single doses of ≥210 mg

## COc1cccc(-c2ccc(NC(=O)C3=C(C(=O)O)CCC3)c(F)c2)c1 [vidofludimus]
[1]; daily doses of 35 mg
  symptomatic hematuria: no cases of symptomatic hematuria
[1]; [8]
  blood uric acid levels: decrease
  urine red blood cell count: increase

## COc1cccc(-c2ccc(NC(=O)C3=C(C(=O)O)CCC3)c(F)c2)c1 [IMU-838]
[2]; P1-IMU-838-MAD dose groups
  urinary excretion of uric acid after treatment initiation: increased in all but the 30 mg group
[2]; Placebo pre-treatment then 50 mg
  Change in Median uric acid excreted in urine: 86.5 mg/24 h
[2]; Pre-dosing 25 mg for 6 days then 50 mg
  Change in Median uric acid excreted in urine: 49.5 mg/24 h
[3]; 10 mg fasted group, N = 6, baseline before dosing
  Uric acid, Pre dose (−24 h to 0): 520 mg/24 h
[3]; 40 mg fasted group, N = 4, baseline before dosing
  Uric acid, Pre dose (−24 h to 0): 489^a mg/24 h
[3]; single dose 10 mg fasted, N = 6, 24 h urine
  Uric acid, Post dose (4 to 28 h): 637 mg/24 h
[3]; single dose 10 mg fasted
  Increase of mean uric acid levels: 117 mg/24 h
[3]; single dose 40 mg fasted, N = 5, 24 h urine
  Uric acid, Post dose (4 to 28 h): 734 mg/24 h
[3]; single dose 40 mg fasted
  Increase of mean uric acid levels: 245 mg/24 h
[4]; after 1 day of treatment (4-28 hours)
  mean 24 hours urinary urate level: 789.5 mg
[4]; after 1 day of treatment (4-28 hours), dose 1 25 mg
  mean increase in 24 hours urinary urate levels: 15%
[4]; after three weeks (day 21)
  mean 24 hours urinary urate level: 815.9 mg
[4]; day 21 vs first day of dose 2
  overall increase of mean urinary urate level: 4%
[4]; first day of dose 2 50 mg (day 7 of the full trial)
  mean 24 hours urinary urate level: 789.7 mg
[4]; pre-dose baseline
  mean 24 hours urinary urate level: 684.1 mg
[5]; single dose 10 mg IMU-838, fasted male healthy volunteers
  Cmax: 1580 ng/mL
[5]; male, single dose 40 mg IMU-838, fasted
  Cmax: 7860 ng/mL
[6]; 30 mg and 40 mg groups, after the full 14 days treatment
  increase of uric acid compared with pre-treatment: around 30%
[6]; 30 mg group, pre-dose (day 0) baseline
  amount of uric acid in 24 hour urine: 605.9 mg
[6]; 30 mg once daily, after 14 days vs pre-dose
  increase of uric acid in urine: 29%
[6]; 30 mg once daily, day 1 (4 to 28 hours)
  increase of uric acid in urine at day one: no increase
[6]; 30 mg once daily, day 14
  amount of uric acid in 24 hour urine: 686.2 mg
[6]; 40 mg group, pre-dose (day 0) baseline
  amount of uric acid in 24 hour urine: 541.4 mg
[6]; 40 mg once daily, day 14
  amount of uric acid in 24 hour urine: 699.3 mg
[6]; 40 mg once daily, first day (4-28 hours after intake)
  amount of uric acid in 24 hour urine: 620.3 mg
[6]; 40 mg once daily, first day (4-28 hours) vs pre-dose
  increase of uric acid in urine: 15.2%
[7]; doses up to 40 mg of IMU-838
  dose limiting side effects like hematuria: no dose limiting side effects like hematuria occurred
[7]; single doses 10 to 40 mg
  RBC (red blood cell count) in urine: not leading to increase of RBC
